Results from patent US4990613A, “(1R,5S,6S)-2-[(6,7-dih ydro-5H-pyrazolo[1,2-a][1,2,4]triazolium-6-yl)]thio-6-[R-1-hydroxyethyl]- 1-methyl-carbapenem-3-carboxylate and intermediate therefor” (Lederle (Japan), Ltd., priority 1987, dated 1991).
Values after ≈ are worked out from the molar mass of the structure shown.

What was measured:
[1] = tested on: Swine Kidney Dehydropeptidase-I (DHP-I); test: Stability of test compounds against DHP-I by HPLC; assay type: in vitro ADME
Protocol: The swine kidney (8 kg) was homogenized and an enzyme protein was allowed to precipitate. After a connective lipid was removed with acetone, the resultant material was made soluble by treatment with butanol and purified in the order by the ammonium sulfate fraction method, thereby producing DPH-I enzyme from a 75% ammonium sulfate fraction.
The DHP-I enzyme was then adjusted to give an enzyme concentration of 25 mg/10 ml (phosphate buffer, pH 7.1), and divided into 1 ml portions. The portions were frozen and stored at -40° C. or less until use.
As a test compound was used the compound (15) obtained in Example 6 that follows.
The test compounds was adjusted in situ to give the concentration of […] with a 50 mM sodium phosphate buffer solution (pH=7.1).
As control compounds were employed glycyl dehydrophenylalanine (Gl-dh-Ph) and imipenem, and they were adjusted in situ each to give the concentration of 177 μM with the same sodium phosphate buffer solution.
The test compound according to the present invention and the control compounds have been treated in substantially the same manner as (1) above. The incubation, however, was conducted at 37° C. for 4.5 hours or for 24 hours. A degree of the hydrolysis of the compounds each after the test periods of time was measured by the HPLC method.

[2] = tested on: Micrococcus luteus ATCC9341; test: Antibacterial test, agar plate dilution method; conditions: Micrococcus luteus, ATCC9341, 18 h
[3] = tested on: Klebsiella pneumoniae PCI-602; test: Antibacterial test, agar plate dilution method; conditions: Klebsiella pneumoniae, PCI602, 18 h
[4] = tested on: P. aeruginosa resistant strains; test: Sensitivity test against clinical isolates, P. aeruginosa resistant strains; assay type: cell-based; conditions: 54 resistant strains
Protocol: It is noted here that the 54 strains have been chosen because there have been the strains in duplicate with the agents. ______________________________________ Ceftazidime (CAZ) (25 to 100 μg/ml) 21 strains Cefsulodine (CFS) (25 to >100 μg/ml) 23 strains Piperacilin (PIPC) (25 to >100 μg/ml) 15 strains Gentamycin (GM) (25 to >100 μg/ml) 21 strains Amikacin (AMK) (25 to >100 μg/ml) 26 strains Ofloxacin (OFLX) (25 to >100 μg/ml) 4 strains ______________________________________
A minimum inhibitory concentration (MIC) was determined in substantially the same manner as the test procedures II above using the 54 strains of P. aeruginosa having an anti-Pseudomonas resistance.

[5] = tested on: C. freundii resistant strains; test: Sensitivity test against clinical isolates, C. freundii resistant strains; assay type: cell-based; conditions: CFIX/CTX resistant strains
Protocol: Cefixime (CFIX) (50 to >100 μg/ml)
Cefotaxime (CTX) (50 to >100 μg/ml)
The tests were carried out in the same manner as described above Test 1.

Proteus vulgaris OX-19 = test: Antibacterial test, agar plate dilution method; conditions: Proteus vulgaris, OX19, 18 h
[6] = tested on: Proteus mirabilis IFO3849; test: Antibacterial test, agar plate dilution method; conditions: Proteus mirabilis, IFO3849, 18 h
[7] = tested on: Pseudomonas aeruginosa IFO 3445; test: Antibacterial test, agar plate dilution method; conditions: Pseudomonas aeruginosa, IFO3445, 18 h
[8] = tested on: Pseudomonas aeruginosa NCTC 10490; test: Antibacterial test, agar plate dilution method; conditions: Pseudomonas aeruginosa, NCTC10490, 18 h
[9] = tested on: Escherichia coli K12 C600; test: Antibacterial test, agar plate dilution method; assay type: cell-based; conditions: Escherichia coli, K12C600; 37° C., 18 hours, MH agar; read-out: MIC
[10] = tested on: Bacillus subtilis ATCC6633; test: Antibacterial test, agar plate dilution method; conditions: Bacillus subtilis, ATCC6633, 18 h
[11] = tested on: Pseudomonas aeruginosa GN 918; test: Antibacterial activity against clinically isolated β-lactamase producing strains; assay type: cell-based; conditions: Pseudomonas aeruginosa, GN918; cephalosporinase producing strain, 18 to 20 hours; read-out: MIC
Protocol: (§1) A solution of a cephalosporinase producing strain stored by Episome Research Institute, which was prepared by incubating the strain in a sensitivity test broth (STB; product of Nissui K.K.) for 18 hours, was diluted with a fresh STB solution to contain 10^5 cells per milliliter and the diluted solution was then inoculated as spots with a microplanter on a sensitivity disk agar-N (SDA; product of Nissui K.K.) containing a test compound. The disk agar was then incubated for 18 to 20 hours. A minimum inhibitory concentration was determined as a minimum concentration in which the test microorganism had no longer grown after a 18 to 20 hour incubation.

[12] = tested on: Providencia rettgeri GN 5284; test: as above; assay type: cell-based; conditions: Providencia rettgeri, GN5284; cephalosporinase producing strain, 18 to 20 hours; read-out: MIC
Protocol: as §1

[13] = tested on: Enterobacter cloacae GN 7471; test: as above; assay type: cell-based; conditions: Enterobacter cloacae, GN7471; cephalosporinase producing strain, 18 to 20 hours; read-out: MIC
Protocol: as §1

[14] = tested on: Enterobacter cloacae GN 5797; test: as above; assay type: cell-based; conditions: Enterobacter cloacae, GN5797; cephalosporinase producing strain, 18 to 20 hours; read-out: MIC
Protocol: as §1

[15] = tested on: Enterobacter cloacae GN 7467; test: as above; assay type: cell-based; conditions: Enterobacter cloacae, GN7467; cephalosporinase producing strain, 18 to 20 hours; read-out: MIC
Protocol: as §1

Proteus vulgaris GN 76 = test: as above; assay type: cell-based; conditions: Proteus vulgaris, GN76
Protocol: as §1

[16] = tested on: Morganella morganii IFO3848; test: Antibacterial test, agar plate dilution method; conditions: Morganella morganii, IFO3848, 18 h
[17] = tested on: Serratia marcescens IAM1184; test: Antibacterial test, agar plate dilution method; conditions: Serratia marcescens, IAM1184, 18 h

Compound | MIC [2] | MIC [3] | MIC [7] | MIC [8] | MIC [9] | MIC [10] | MIC [12] | MIC [14] | MIC [16] | MIC [17] | further results
C[C@@H](O)[C@H]1C(=O)N2C(C(=O)O)=C(SCCN=CN)C[C@H]12 [Imipenem] | 0.025 µg/mL (≈ 0.0835 µM) | 0.39 µg/mL (≈ 1.3 µM) | 0.78 µg/mL (≈ 2.61 µM) | 0.78 µg/mL (≈ 2.61 µM) | 3.13 µg/mL (≈ 10.5 µM) | 0.025 µg/mL (≈ 0.0835 µM) | 0.39 µg/mL (≈ 1.3 µM) | 0.39 µg/mL (≈ 1.3 µM) | 0.39 µg/mL (≈ 1.3 µM) | 0.39 µg/mL (≈ 1.3 µM) | Degree of hydrolysis by DHP-I ([1]; 37° C. 4.5 hours, substrate concentration 100 μM, HPLC): 77.6 µM; Degree of hydrolysis by DHP-I (in words) ([1]; after 24 hours at 37° C., footnote * of Table 3): imipenem has been decomposed and nothing remained was detected; test microorganisms whose growth is inhibited ([4]; concentration of 12.5 μg/ml): all the test microorganism; test microorganisms whose growth is inhibited ([4]; concentration of […]): approximately 98%; test microorganisms whose growth is inhibited ([5]; concentration of 0.78 μg/ml): approximately 90%; test microorganisms whose growth is inhibited ([5]; concentration of 1.56 μg/ml): all the test microorganisms; MIC (Proteus vulgaris OX-19): 0.78 µg/mL (≈ 2.61 µM); MIC [6]: 6.25 µg/mL (≈ 20.9 µM); MIC [11]: 0.78 µg/mL (≈ 2.61 µM); MIC [13]: 0.2 µg/mL (≈ 0.668 µM); MIC [15]: 0.78 µg/mL (≈ 2.61 µM); MIC (Proteus vulgaris GN 76): 3.13 µg/mL (≈ 10.5 µM)
Cc1nnc(SCC2=C(C(=O)O)N3C(=O)[C@@H](NC(=O)Cn4cnnn4)[C@H]3SC2)s1 [CEZ] | 0.39 µg/mL (≈ 0.858 µM) | 0.78 µg/mL (≈ 1.72 µM) | > 100 µg/mL | > 100 µg/mL | 0.78 µg/mL (≈ 1.72 µM) | 0.1 µg/mL (≈ 0.22 µM) | 0.2 µg/mL (≈ 0.44 µM) | 0.39 µg/mL (≈ 0.858 µM) | 25 µg/mL (≈ 55 µM) | > 100 µg/mL | –
